Like-named read-outs stand apart in the source and are kept apart here.
Experiments:
[1] = Pharmacokinetic studies in the mouse (i.v. clearance, plasma levels); format: in vivo; details: CD-1, plasma, iv, mouse, 25 mg/kg
Description: Pharmacokinetic Studies in the Mouse
Sample Preparation and Dosing
Compounds were dissolved in sterile TRIS solution (0.02M or 0.05M) at a concentration of 2.5 mg/ml. Where necessary to ensure a complete solution, the sample was first dissolved in a minimum of dimethylacetamide (maximum of 5% of total solution volume) then diluted with the TRIS solution.
The drug solution was administered to CD-1 mice (Charles River Laboratories—26-31 g) via the tail vein at a dose volume of 10 ml/kg giving a drug dose of 25 mg/kg.
Mice were dosed in groups of 5 for each timepoint (generally from 2 minutes to 2 hours) then at the appropriate time the animals were anaesthetised with halothane and the blood collected into individual heparinized tubes by jugular severance. The blood samples were cooled to 0° C. then the plasma separated and stored at −20° C. until assayed.
Drug concentration in the plasma samples were determined by HPLC analysis with UV or MS (ESP) detection. Reverse phase chromatography was employed using a variety of bonded phases from C1 to C18 with eluents composed of aqueous buffer/acetonitrile mixtures run under isocratic conditions.
Quantitation was by external standard methods with calibration curves constructed by spiking plasma with drug solutions to give concentrations in the range of 0.5 to 50 μg/ml.
Prior to analysis the plasma samples were deproteinated by the addition of acetonitrile, methanol, trichloroacetic acid or perchloric acid followed by centrifugation at 10,000 g for 10 minutes. Sample volumes of 20 μl to 50 μl were injected for analysis.
The drug was dissolved in sterile 0.02M Tris to give a 2.5 mg/ml solution which was administered to […] of 5 male CD-1 mice via the tail vein at a dose of 25 mg/kg. At each of the following timepoints: 2, 5, 10, 15, 20, 30, 45, 60, 90 and 120 minutes a group of animals was anaesthetised and the blood collected into heparinized tubes. After separation the plasma was stored at −20° C. until assayed.
Aliquots of plasma (150 μl) were treated with 5% perchloric acid (5 μl) then mixed by vortexing and allowed to stand for 90 minutes prior to centrifugation. The resulting supernatant was separated and 20 μl was injected for HPLC analysis.
Aliquots of plasma (100 μl) were diluted with acetonitrile (100 μl) then mixed by vortexing for 20 seconds before centrifugation for 10 minutes. The resulting supernatant was separated and 20 μl was injected for HPLC analysis.

IL-1β, human whole blood = experiment: Whole blood assay for IL-1β production; format: cell-based; details: Homo sapiens, read-out: Whole human blood IC50
Outline: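 Human whole blood collected on Na2EDTA was treated with serially diluted compound in saline and then stimulated with LPS at 5.0 ng/ml final, for 16-18 h at 30 °C, in duplicate or triplicate. Plasma IL-1β was measured by ELISA at 1:200 dilution.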

ICE = target: T1, ICE (Homo sapiens, UniProt P29466); experiment: Enzyme assay with UV-visible substrate (visible ICE assay, Succinyl-Tyr-Val-Ala-Asp-pNitroanilide); format: biochemical
T1 sequence (P29466 120-297 limits assumed): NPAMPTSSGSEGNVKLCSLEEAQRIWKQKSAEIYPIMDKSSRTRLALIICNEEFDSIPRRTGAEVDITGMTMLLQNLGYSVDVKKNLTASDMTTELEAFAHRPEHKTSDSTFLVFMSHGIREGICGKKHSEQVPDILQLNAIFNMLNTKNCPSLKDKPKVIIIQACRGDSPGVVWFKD
T1 sequence (P29466 317-404 limits assumed): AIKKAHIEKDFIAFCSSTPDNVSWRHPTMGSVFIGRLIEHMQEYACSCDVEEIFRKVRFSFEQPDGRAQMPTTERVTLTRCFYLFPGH
Outline: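 Read-out is the rate of pNA chromophore release (mOD/min, linear fit) monitored at 405-603 nm over 20 min at 37° C. Substrate was succinyl-Tyr-Val-Ala-Asp-pNitroanilide, added after a 15 min room-temperature preincubation of ICE with inhibitor.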

[2] = test system: IL-1β, human peripheral blood mononuclear cells (PBMC); experiment: PBMC cell assay: IL-1β assay with human PBMC or enriched adherent mononuclear cells, LPS-stimulated; format: cell-based; details: Homo sapiens, PBMC
Outline: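 Buffy-coat human PBMC at 6×10^6 cells/ml, or adherent monocytes enriched by 1 h adherence (2.5−3.0×10^5 cells/well), are given 5–6 compound dilutions bracketing the ICE Ki (final DMSO 0.1%) plus LPS at a final 5 ng/ml. They are incubated 16–18 hr at 37 °C, 5% CO2, and supernatant mature IL-1β is measured by ELISA, with duplicate cultures and duplicate ELISAs.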

[3] = In vivo rat clearance assay; details: plasma, iv
Description: In Vivo Rat Clearance Assay
Cannulations of the jugular and carotid vessels of rats under anesthesia were performed one day prior to the pharmacokinetic study. M. J. Free, R. A. Jaffee; ‘Cannulation techniques for the collection blood and other bodily fluids’; in: Animal Models; p. 480-495; N. J. Alexander, Ed.; Academic Press; (1978). Drug (10 mg/mL) was administered via the jugular vein in a vehicle usually consisting of: propylene glycol/saline, containing 100 mM sodium bicarbonate in a 1:1 ratio. Animals were dosed with 10-20 mg drug/kg and blood samples were drawn at 0, 2, 5, 7, 10, 15, 20, 30, 60, and 90 minutes from an indwelling carotid catheter. The blood was centrifuged to plasma and stored at −20° C. until analysis. Pharmacokinetic analysis of data was performed by non-linear regression using standard software such as RStrip (MicroMath Software, UT) and/or Pcnonlin (SCI Software, NC) to obtain clearance values.
Rat plasma was extracted with an equal volume of acetonitrile (containing 0.1% TFA). Samples were then centrifuged at approximately 1,000×g and the supernatant analyzed by gradient HPLC. A typical assay procedure is described below.
A standard curve was run at 20, 10, 5, 2 and 1 μg/mL concentrations.

[4] = test system: IL-1β production, LPS-challenged mice; experiment: In vivo acute assay for efficacy as anti-inflammatory agent: LPS-induced IL-1β production in mice; set-up: species or system mouse; details: Mus musculus, po, LPS challenged mice, compound PO, 50 mg/kg, read-out: percent inhibition of IL-1β production
Outline: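 CD1 mice (n=6) were challenged with LPS 20 mg/kg IP and given compound IP in olive oil:DMSO:ethanol (90:5:5) 1 h after LPS, or at the time of challenge for some analogs. Blood was taken 7 h after LPS and serum IL-1β was measured by ELISA. Oral gavage at 50 mg/kg was also tested.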

[5] = * = values obtained upon reassay
[6] = 0 h, administered 0 h relative to time of LPS challenge
[7] = 2 h, administered −2 h relative to time of LPS challenge

Row | Structure (SMILES) | melting point | Ki (ICE; Table 17) [nM] | IC50 ([2]; Table 17) [nM] | clearance ([3]; Table 17) [mL/min/kg] | also measured
1 | O=C[C@H](CC(=O)O)NC(=O)[C@@H]1CCCN2CCC[C@H](NC(=O)CCc3ccccc3)C(=O)N12 [Compound 47b, [3S(1S,9S)]3-(Octahydro-10-oxo-9-(3-phenylpropionylamino)-6H-pyridazino-[1,2-a][1,2]diazepine-1-carboxamido)-4-oxobutanoic acid] | 87 to 90 °C |  |  |  | clearance [1]: 338 mL/min/kg; IC50 (IL-1β, human whole blood; [5]): < 600 nM
2 | O=C[C@H](CCC(=O)O)NC(=O)[C@@H]1CCCN2C(=O)CC[C@H](NC(=O)c3ccccc3)C(=O)N12 [Compound 235e, [4S,(1S,9S)]-4-[9-(Benzoylamino)-6,10-dioxo-1,2,3,4,7,8,9,10-octahydro-6H-pyridazino-[1,2-a][1,2]diazepine-1-carboxamido]-5-oxopentanoic acid] | 142 °C (dec.) |  |  |  | Ki (ICE; Table 5): 510 nM; clearance [1]: 36 mL/min/kg; IC50 [2, 5]: 4750 nM
3 | O=C[C@H](CC(=O)O)NC(=O)[C@@H]1CCCN2CCC[C@@H](NC(=O)c3ccccc3)C(=O)N12 [Compound 246b, [3S(1S,9R)]3-(9-Benzoylamino-1,2,3,4,7,8,9,10-octahydro-10-oxo-6H-pyridazino[1,2-a][1,2]diazepine-1-carboxamido)-4-oxobutanoic acid] | 115 to 119 °C | 30000 | > 30000 |  | clearance ([1]; Table 17): 87 mL/min/kg
4 | O=C[C@H](CC(=O)O)NC(=O)[C@@H]1CCCN2C(=O)CCN(NC(=O)Nc3ccccc3)C(=O)N12 [Compound 265f, [3S(4S)]3-[6,10-Dioxo-1,2,3,4,7,8,9,10-octahydro-7-(3-phenylureido)-6H-pyridazino[1,2-a][1,2,4]triazepine-4-carboxamido]-4-oxobutanoic acid] | 157 to 162 °C | 1200 |  | 24 | 
5 | COC(=O)N[C@H]1CCC(=O)N2CCC[C@@H](C(=O)N[C@@H](CC(=O)O)C(=O)CSc3nnnn3-c3ccccc3)N2C1=O [Compound 280c, [3S(1S,9S)]3-[6,10-Dioxo-9-(methoxycarbonylamino)-1,2,3,4,7,8,9,10-octahydro-6H-pyridazino[1,2-a][1,2]diazepine-1-carboxamido]-4-oxo-5-[5-(1-phenyltetrazolyl)-thio]pentanoic acid] | 105 to 130 °C |  | 10000 | 86 | 
6 | COC(=O)N[C@H]1CCC(=O)N2CCC[C@@H](C(=O)N[C@@H](CC(=O)O)C(=O)COc3cccnc3)N2C1=O [Compound 283c, [3S(1S,9S)]3-[6,10-Dioxo-9-(methoxycarbonylamino)-1,2,3,4,7,8,9,10-octahydro-6H-pyridazino[1,2-a][1,2]diazepine-1-carboxamido]-4-oxo-5-(3-pyridinyloxy)pentanoic acid] | 90 to 105 °C |  | 4000 | 50 | 
7 | O=C[C@H](CC(=O)O)NC(=O)[C@@H]1CCCN2C(=O)CC[C@H](NC(=O)c3ccc(O)cc3)C(=O)N12 [Compound 456] | > 260 °C |  |  |  | clearance ([3]; 10-20 mg/kg): 12.7 mL/min/kg; Ki (ICE; Table 5): 4.5 nM; inhibition at 50 mg/kg [4, 6]: 69%; inhibition at 50 mg/kg ([4]; 1 h, administered +1 h relative to time of LPS challenge): 56%; inhibition at 50 mg/kg [4, 7]: 41%
8 | COc1ccc(C(=O)NN2CCC(=O)N3CCC[C@@H](C(=O)N[C@H](C=O)CC(=O)O)N3C2=O)cc1 [Compound 1052, [3S(4S)]3-[6,10-Dioxo-7-(4-methoxybenzoylamino)-octahydro-6H-pyridazino[1,2-a][1,2,4]triazepine-4-carboxamido]-4-oxobutanoic acid] | 138 to 142 °C | 100 | 2500 | 16 | 
9 | O=C[C@H](CC(=O)O)NC(=O)[C@@H]1CCCN2C(=O)CCN(NC(=O)c3ccc(O)cc3)C(=O)N12 [Compound 1056, [3S(4S)]3-[6,10-Dioxo-7-(4-hydroxybenzoylamino)-1,2,3,4,7,8,9,10-octahydro-6H-pyridazino[1,2-a][1,2,4]triazepine-4-carboxamido]-4-oxobutanoic acid] | > 300 °C | 170 |  | 17 | 
10 | O=C[C@H](CC(=O)O)NC(=O)[C@@H]1CCCN2C(=O)CCN(NC(=O)Cc3ccccc3)C(=O)N12 [Compound 1095, [3S(4S)]3-(6,10-Dioxo-1,2,3,4,7,8,9,10-octahydro-7-phenylacetylamino-6H-pyridazino[1,2-a][1,2,4]triazepine-4-carboxamido)-4-oxobutanoic acid] | 180 to 186 °C | 360 | 6000 | 28 | 
11 | O=C1C[C@H](NC(=O)[C@@H]2CCCN3C(=O)CC[C@H](NC(=O)c4ccccc4)C(=O)N23)C(OC2CCCC2)O1 (stereo partly drawn) [Compound 2100l, [1S,9S(2RS,3S)]9-Benzamido-N-(2-cyclopentyloxy-5-oxo-tetrahydrofuran-3-yl)-6,10-dioxo-1,2,3,4,7,8,9,10-octahydro-6H-pyridazino[1,2-a][1,2]diazepine-1-carboxamide] | 172 to 180 °C |  | 750 |  | IC50 (IL-1β, human whole blood; Table 17): 2200 nM; inhibition at 50 mg/kg [4, 6]: 28%; inhibition at 50 mg/kg [4, 7]: 52%

Reference: patent publication US20120165319A1, “INHIBITORS OF INTERLEUKIN-1 BETA CONVERTING ENZYME” (VERTEX PHARMACEUTICALS INCORPORATED, priority 1995, published 2012)
